# Laboratory results from patent publication US20170020909A1, “METHODS OF TREATING GLAUCOMA USING AMP-ACTIVATED PROTEIN KINASE (AMPK) ACTIVATORS” (Massachusetts Eye and Ear Infirmary, priority 2014, published 2017).
# Key:
# Format in all cases: cell-based
# Conditions in all cases: 24 hours
# TSP-1 = experiment: Immunoblot of TSP-1 in conditioned media of human TM cells
# Protocol: (§1) FIGS. 5A-E. AICAR suppresses ECM proteins in primary human TM cells under basal and TGF-β2 stimulatory conditions. (A) Representative immunoblots of ECM proteins from conditioned media (CM) of human TM cells treated for 24 hours with PBS vehicle or 0.5 mM AICAR and (B) integrated band intensities calculated from those immunoblots. (C) Representative immunoblots of ECM proteins from CM of human TM cells under stimulation with 2.5 ng/mL TGF-β2. Cells were pre-incubated for 1 hour with PBS or 0.5 mM AICAR prior to full 24-hour treatment. (D) Mean integrated band intensities. Data in panels B and D are expressed as mean±SEM (*p<0.05 vs. PBS vehicle by student t-test; n=5-7). (E) Representative 10% acrylamide gels stained with Coomassie Brilliant Blue as a loading control. […]
# (§2) At the conclusion of each experiment for matricellular and ECM protein detection, conditioned media (CM) from TM cell cultures was harvested and centrifuged at 5000 rpm for 10 minutes at 4° C. The supernatant was then concentrated (Amicon Ultra-4 Filter Unit, 10 kDa; Millipore, Milford, Mass.), and protein content quantified using the DC Protein Assay kit adhering to manufacturer's protocols (Bio-Rad, Hercules, Calif.). […] Samples were then centrifuged at 14,000 rpm for 15 minutes at 4° C. and protein content quantified. […]
# collagen I = experiment: Immunoblot of collagen I in conditioned media of human TM cells
# Protocol: as §1, §2
# collagen IV = experiment: Immunoblot of collagen IV in conditioned media of human TM cells
# Protocol: as §1, §2
# [1] = 0.5 mM AICAR vs PBS vehicle, basal
# [2] = 0.5 mM AICAR, under TGF-β2 stimulation with 2.5 ng/mL
structure (smiles),measurement,setting,value
"NC(=O)c1ncn([C@@H]2O[C@H](CO)[C@@H](O)[C@H]2O)c1N [AICAR, 5-Aminoimidazole-4-carboxamide riboside]",change in TSP-1 (mean integrated band intensity),TSP-1; [1],no change
same,change in TSP-1 levels,TSP-1; [2],no change
same,decrease in collagen I (mean integrated band intensity),collagen I; [1],70%
same,decrease in collagen I level,collagen I; [2],26%
same,decrease in collagen IV (mean integrated band intensity),collagen IV; [1],52%
same,decrease in collagen IV level,collagen IV; [2],34%
